Assay results: patent publication US20080076147A1, “BIOFILM SAMPLING DEVICE” (BOARD OF TRUSTEES OF SOUTHERN ILLINOIS UNIVERSITY, priority 2006, published 2008)

Tests used:
Acinetobacter baumanii = assay: Biocide kill of planktonic cells and biofilm on vascular catheter (serum flow model); format: cell-based; conditions: planktonic cells on vascular catheter, 5 to 60 minutes, FIG. 10A
Text: (§1) A system as shown in FIG. 6 was used in this study. Serum and a biocide were placed in sealed bottles as the first fluid source 505 and the second fluid source 509, respectively. The fluid sources were connected to a pump 515 by conventional IV tubing. A second pump 531 was used to deliver the fluid mixture to the vascular catheter 3 positioned in the sampling apparatus 1.
Initially, only the first fluid source, serum inoculated with Acinetobacter baumanii (10×10^9 CFU/ml), was used to contaminate the catheter with planktonic cells. The inoculated fluid continuously flowed through IV tubing directly through the catheter for […] to form a layer of planktonic cells on the catheter. […] The segments were transferred to test tubes containing one ml saline and the adherent cells were dislodged by sonication in an aquasonic device, vortexed for about one minute, and then counted on Tropic soya Agar. The number of viable cells were determined for each catheter and were compared to the number of viable cells in control samples (i.e., biocide-free serum) to calculate the biocide concentration required to kill 50% of the bacteria in the biofilm at the same time interval. […] In addition to plating cells on agar and counting the number of colonies, the amount of biofilm formed can be determined by a semiquantitive microtiter plate method. […]

Burkholderia cepacia = assay: as above; format: cell-based; conditions: 5 to 60 minutes; for biofilm kill (biocide concentration required to kill 50% of bacteria that grew in the biofilm): biofilm on vascular catheter, FIG. 11B; for planktonic cell kill (biocide concentration required to kill 100% of bacteria present as planktonic cells): planktonic cells on vascular catheter, FIG. 11A
Text: as §1
(§2) Initially, only the first fluid source, serum inoculated with Acinetobacter baumanii (10×10^9 CFU/ml), was used to contaminate the catheter with planktonic cells. The inoculated fluid continuously flowed through IV tubing directly through the catheter for […] to form a layer of planktonic cells on the catheter. Fluid flow was then stopped and the tubing was then reconfigured as shown in FIG. 6 so that the second fluid source could be introduced. In these test runs, the first fluid source was inoculated with the same concentration of bacteria, and the second fluid source was a biocide (16-16,000 ppm) selected from hydrogen peroxide (H2O2), sodium hypochlorite (SHC), peracetic acid (PAA) and gluteraldehyde (GLT). The fluid mixture continuously flowed through the catheter for 5, 10, 15, 30, 45 or 60 minutes before fluid flow was discontinued to determine bacterial resistance of the planktonic cells on the catheter. In all, six runs were completed for each of four different biocides. After each run, the test catheter was then cut aseptically into 1 cm segments. The segments were transferred to test tubes containing one ml saline and the adherent cells were dislodged by sonication in an aquasonic device, vortexed for about one minute, and then counted on Tropic soya Agar. The number of viable cells were determined for each catheter and were compared to the number of viable cells in control samples (i.e., biocide-free serum) to calculate the biocide concentration required to kill 50% of the bacteria in the biofilm at the same time interval. Instead of saline, other appropriate buffer solutions can be used. In addition to plating cells on agar and counting the number of colonies, the amount of biofilm formed can be determined by a semiquantitive microtiter plate method. For example, adherent cells can be dislodged from test catheters as described above. The aliquots of solutions containing the cells from each catheter piece can then be added separately to wells of a 96-well tissue culture plate and incubated at 37° C. for 24 h. After several (e.g., three) washes with PBS, any remaining biofilm is stained with safranin O dye for 1 min and washed with PBS again. Optical density at 492 nm is determined with a 96-well plate spectrometer reader. For each time point, an aliquot without biocide is a positive control. Percent inhibition of biofilm accumulation can be determined from the formula (A492positive−A492biocide)/(A492positive−A492)×100%, Such plating methods are well known to one skilled in the art and could be modified as desired for analysis of the biofilm.
(§3) For determination of the bacterial resistance of the biofilm formed on the catheter, the method described above was repeated using the same conditions except that the inoculated fluid continuously flowed through the catheter for two hours before fluid flow was discontinued to form a biofilm on the catheter.
The experiment was repeated as described above, except that Burkholderia cepacia (1×10^9 CFU/ml) was used to inoculate the serum.

Escherichia coli = assay: as above; format: cell-based; conditions: biofilm on vascular catheter, over all time periods (5 to 60 minutes), FIG. 12B
[1] = tested on: methicillin resistant Staphylococcus aureus (MRSA); assay: as above; format: cell-based; conditions: biofilm on vascular catheter, 5 to 60 minutes, FIG. 14B
Staphylococcus epidermis = assay: as above; format: cell-based; conditions: 5 to 60 minutes; for biofilm kill (biocide concentration required to kill 50% of bacteria that grew in the biofilm): biofilm on vascular catheter, FIG. 15B; for planktonic cell kill (biocide concentration required to kill 100% of bacteria present as planktonic cells): planktonic cells on vascular catheter, FIG. 15A
Text: as §1, §2, §3
The experiment was repeated as described above, except that Staphylococcus epidermis (1×10^9 CFU/ml) was used to inoculate the serum.

Pseudomonas aeruginosa = assay: as above; format: cell-based; conditions: 5 to 60 minutes; for biofilm kill (biocide concentration required to kill 50% of bacteria that grew in the biofilm): biofilm on vascular catheter, FIG. 16B; for planktonic cell kill (biocide concentration required to kill 100% of bacteria present as planktonic cells): planktonic cells on vascular catheter, FIG. 16A
Text: as §1, §2, §3
The experiment was repeated as described above, except that Pseudomonas aeruginosa (1×10^9 CFU/ml) was used to inoculate the serum.

[2] = tested on: Stenotrophomonas maltophilia; assay: as above; format: cell-based; conditions: 5 to 60 minutes; for biofilm kill (biocide concentration required to kill 50% of bacteria that grew in the biofilm): biofilm on vascular catheter, FIG. 17B; for planktonic cell kill (biocide concentration required to kill 100% of bacteria present as planktonic cells): planktonic cells on vascular catheter, FIG. 17A
Text: as §1, §2, §3
The experiment was repeated as described above, except that Stenotrophomonas maltophilia (1×10^9 CFU/ml) was used to inoculate the serum.

MRSA [3] = assay: Effect of albumin coating on colonization of MRSA in endotracheal tube model; format: cell-based, Staphylococcus aureus
Text: (§4) A system as shown in FIG. 7 was used in this study. Artificial saliva was placed in a sealed bottle as the second fluid source 609. The first fluid source was provided by an oxygen tank used to saturate the artificial saliva with oxygen. A pump 631 was used to deliver the saliva to an endotracheal tube 3 positioned in the sampling apparatus 1. Each endotracheal tube was pretreated by coating the tube with undiluted bovine serum albumin, except for the untreated tube used as a control.
Initially, only the second fluid source, saliva inoculated with MRSA (1×10^9 CFU/ml), was used to contaminate the endotracheal tube. The inoculated fluid continuously flowed through IV tubing directly through the endotracheal tube for 60 minutes to form a biofilm on the tube. Fluid flow was then stopped and the tubing was then reconfigured as shown in FIG. 7 so that oxygen could be introduced. In these test runs, 100 mg/L mucin was added to the saliva. The fluid mixture continuously flowed through the catheter for 48 hours before fluid flow was discontinued to determine the effect of albumin on the colonization of MRSA on the endotracheal tube. […] The segments were transferred to test tubes containing one ml saline and the adherent cells were dislodges by sonication in an aquasonic device, vortexed for about one minute, and then counted on Tropic soya Agar. […]

MRSA [4] = assay: Mucin in controlling colonization of MRSA in endotracheal tube model; format: cell-based, Staphylococcus aureus; conditions: for log10 reduction of colonized MRSA: 48 hours flow, endotracheal tube
Text: as §4, with “1.” for “1. Each endotracheal tube was pretreated by coating the tube with undiluted bovine serum albumin, except for the untreated tube used as a control.”
Initially, only the second fluid source, saliva inoculated with MRSA (1×10^9 CFU/ml), was used to contaminate the endotracheal tube. The inoculated fluid continuously flowed through IV tubing directly through the endotracheal tube for 60 minutes to form a biofilm on the tube. Fluid flow was then stopped and the tubing was then reconfigured as shown in FIG. 7 so that oxygen could be introduced. In these test runs, 100 mg/L mucin was added to the saliva. The fluid mixture continuously flowed through the catheter for 48 hours before fluid flow was discontinued to determine the effect of mucin on the bacterial resistance of the biofilm formed on the endotracheal tube. In all, four runs were completed at 0 mg/L mucin (control), 100 mg/L mucin, 500 mg/L mucin and 1000 mg/L mucin. After each run, the endotracheal tube was cut aseptically into one cm segments. The segments were transferred to test tubes containing one ml saline and the adherent cells were dislodges by sonication in an aquasonic device, vortexed for about one minute, and then counted on Tropic soya Agar.
The results of this study are shown in FIG. 18, which depicts the number of MRSA colony forming units per unit of surface area (CFU/cm^2) on the tube for each mucin concentration. […] The log10 reduction of colonized MRSA was 0.5, 3 (P=0.0001) and 3.5 (P=0.0001) at 100, 500 and 1000 mg/L of mucin, respectively. […] This pathogen plays a significant role in the onset of […] associated pneumonia by causing sustained tracheal colonization.

Enterococcus faecalis = assay: Biocide kill of planktonic cells and biofilm on vascular catheter (serum flow model); format: cell-based; conditions: at 5 minutes of treatment; phase (planktonic or biofilm) not specified, FIGS. 13A-B

Molecule | planktonic cell kill (biocide concentration required to kill 100% of bacteria present as planktonic cells) (Acinetobacter baumanii) | biofilm kill (biocide concentration required to kill 50% of bacteria that grew in the biofilm) (Burkholderia cepacia) | planktonic cell kill (biocide concentration required to kill 100% of bacteria present as planktonic cells) (Burkholderia cepacia) | biofilm kill (biocide concentration required to kill 50% of bacteria that grew in the biofilm) (Escherichia coli) | biofilm kill (biocide concentration required to kill 50% of bacteria that grew in the biofilm) [1] | biofilm kill (biocide concentration required to kill 50% of bacteria that grew in the biofilm) (Staphylococcus epidermis) | planktonic cell kill (biocide concentration required to kill 100% of bacteria present as planktonic cells) (Staphylococcus epidermis) | biofilm kill (biocide concentration required to kill 50% of bacteria that grew in the biofilm) (Pseudomonas aeruginosa) | planktonic cell kill (biocide concentration required to kill 100% of bacteria present as planktonic cells) (Pseudomonas aeruginosa) | biofilm kill (biocide concentration required to kill 50% of bacteria that grew in the biofilm) [2] | planktonic cell kill (biocide concentration required to kill 100% of bacteria present as planktonic cells) [2] | MRSA colonization of endotracheal tubes (in words) (MRSA [3]; albumin coating of endotracheal tube, FIG. 19) | log10 increase of colonized cells (MRSA [3]; whole tube coating with albumin, 100 mg/L mucin in saliva, 48 hours flow, versus uncoated tube, P<0.0001) [log10] | log10 reduction of colonized MRSA (MRSA [4]; 100 mg/L of mucin in oxygen-saturated artificial saliva) [log10] | log10 reduction of colonized MRSA (MRSA [4]; 500 mg/L of mucin in oxygen-saturated artificial saliva, P=0.0001) [log10] | log10 reduction of colonized MRSA (MRSA [4]; 1000 mg/L of mucin in oxygen-saturated artificial saliva, P=0.0001) [log10] | colonization of MRSA on endotracheal tubes (in words) (MRSA [4]; mucin 100-1000 mg/L in artificial saliva, in vitro, FIG. 18) | effectiveness as compared to the other biocides (Enterococcus faecalis)
O=CCCCC=O [GLT, gluteraldehyde] | most effective | nearly identical effect | performed comparably and were more effective than hydrogen peroxide | least effective | PAA>GLT>hydrogen peroxide>SHC | least effective | performed similarly in planktonic cell kill and outperformed hydrogen peroxide | PAA>SHC>GLT>hydrogen peroxide | performed comparably and were more effective than hydrogen peroxide and SHC | nearly identical effect | somewhat more effective in killing planktonic cells as compared to SHC or PAA and considerably more effective than hydrogen peroxide | – | – | – | – | – | – | –
OCl [SHC, sodium hypochlorite] | – | nearly identical effect | performed comparably and were more effective than hydrogen peroxide | – | PAA>GLT>hydrogen peroxide>SHC | performed comparably | performed similarly in planktonic cell kill and outperformed hydrogen peroxide | PAA>SHC>GLT>hydrogen peroxide | PAA and GLT performed comparably and were more effective than hydrogen peroxide and SHC | nearly identical effect | GLT was somewhat more effective in killing planktonic cells as compared to SHC or PAA | – | – | – | – | – | – | –
bovine serum albumin | – | – | – | – | – | – | – | – | – | – | – | increased significantly | 2.4 | – | – | – | – | –
mucin | – | – | – | – | – | – | – | – | – | – | – | – | – | 0.5 | 3 | 3.5 | effective in decreasing the colonization of MRSA on endotracheal tubes | –
OO [hydrogen peroxide] | – | nearly identical effect | SHC, PAA and GLT performed comparably and were more effective than hydrogen peroxide | – | PAA>GLT>hydrogen peroxide>SHC | performed comparably | SHC, PAA and GLT performed similarly in planktonic cell kill and outperformed hydrogen peroxide | PAA>SHC>GLT>hydrogen peroxide | PAA and GLT performed comparably and were more effective than hydrogen peroxide and SHC | nearly identical effect | GLT was somewhat more effective in killing planktonic cells as compared to SHC or PAA and considerably more effective than hydrogen peroxide | – | – | – | – | – | – | relatively uneffective
